# Literature values, collected in patent US4833152A, “Anti-hypertensive agents” (University of Miami, priority 1987, dated 1989).
# Columns and labels:
# [1] = system: ACE
# [2] = 1 mg per ml, pH about 8, as little as 30 minutes, ambient conditions
structure (smiles),measurement,setting,value
C[C@H](CSSC[C@@H](C)C(=O)N1CCC[C@H]1C(=O)O)C(=O)N1CCC[C@H]1C(=O)O [disulfide],inhibitory activity of the disulfide,"[1]; disulfide formed by dimerization of SQ14225, believed",largely inactive as an inhibitor
CC(=O)SC[C@@H](C)C(=O)N1CCC[C@H]1C(=O)O [S-acetyl derivative],potency of the inhibitor on substitution of the sulfhydryl,"[1]; relative to free sulfhydryl SQ14225, Cushman et al., Biochemistry",substantially reduced potency of the inhibitor
"C[C@H](CS)C(=O)N1CCCC1C(=O)O (stereo in doubt) [SQ14225, D-3-mercapto-2-methylpropanoyl-L-proline]","ACE inhibition, in words","[1]; U.S. Pat. No. 4,046,889, Cushman 1977, Ondetti 1977",highly effective inhibitor
same,loss of activity of fresh aqueous solution on standing,[2],substantially less active upon standing for as little as 30 minutes
